Where “and” joins values, the source holds several entries; their conditions need not be identical. Equal values may be shown once. Toxic doses and inconclusive results are not listed. Rule as the data show it: active = T/C of 150% or more; inactive = T/C below 125%.
System: L1210 leukemia ip in BDF1 mice, survival T/C
Test: NCI In Vivo Anticancer Drug Screen. Data for tumor model L1210 Leukemia (intraperitoneal) in B6D2F1 (BDF1) mice
Settings: endpoint: mean survival time, higher = longer survival
How it was run: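 In this screen, tumor-bearing mice given compound are compared to those given vehicle, and their survival values are reported as a treated-to-control quotient.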

[1] = dose: 100.0 mg/kg/injection, schedule: Q04DX003 (ip), vehicle: Klucel (hydroxypropylcellulose) (HPC)
[2] = dose: 200.0 mg/kg/injection, schedule: Q04DX003 (ip), vehicle: Klucel (hydroxypropylcellulose) (HPC)
[3] = dose: 400.0 mg/kg/injection, schedule: Q04DX003 (ip), vehicle: Klucel (hydroxypropylcellulose) (HPC)
[4] = dose: 100.0 mg/kg/injection, schedule: Q01DX001 (ip), vehicle: saline
[5] = dose: 200.0 mg/kg/injection, schedule: Q01DX001 (ip), vehicle: saline
[6] = dose: 400.0 mg/kg/injection, schedule: Q01DX001 (ip), vehicle: saline
[7] = dose: 100.0 mg/kg/injection, schedule: Q01DX009 (ip), vehicle: saline with Tween-80
[8] = dose: 200.0 mg/kg/injection, schedule: Q01DX009 (ip), vehicle: saline with Tween-80
[9] = dose: 400.0 mg/kg/injection, schedule: Q01DX009 (ip), vehicle: saline with Tween-80
[10] = dose: 100.0 mg/kg/injection, schedule: Q01DX009 (ip), vehicle: Klucel (hydroxypropylcellulose) (HPC)
[11] = dose: 200.0 mg/kg/injection, schedule: Q01DX009 (ip), vehicle: Klucel (hydroxypropylcellulose) (HPC)
[12] = dose: 400.0 mg/kg/injection, schedule: Q01DX009 (ip), vehicle: Klucel (hydroxypropylcellulose) (HPC)

Measured: T/C

Cc1c2ccc(=O)cc-2oc2cc(O)ccc12
inactive: [1] 92 % of control | [2] 94 % of control | [3] 87 % of control

CC1=C/C(=N/NC(N)=O)CC(C)(C)C1
inactive: [4] 93 % of control | [5] 93 % of control | [6] 98 % of control

O=C(c1ccc2cc(Cl)c(Cl)cc2c1)C(Cl)Cl
inactive: dose: 25.0 mg/kg/injection, schedule: Q04DX002 (ip), vehicle: Klucel (hydroxypropylcellulose) (HPC) 90 % of control | dose: 50.0 mg/kg/injection, schedule: Q04DX002 (ip), vehicle: Klucel (hydroxypropylcellulose) (HPC) 108 % of control | dose: 100.0 mg/kg/injection, schedule: Q04DX002 (ip), vehicle: Klucel (hydroxypropylcellulose) (HPC) 93 % of control and 98 % of control

O=S(=O)(O)c1cccnc1
inactive: dose: 19.63 mg/kg/injection, schedule: Q01DX Z (ip), vehicle: carboxymethylcellulose (CMC) 102 % of control | dose: 39.25 mg/kg/injection, schedule: Q01DX Z (ip), vehicle: carboxymethylcellulose (CMC) 93 % of control | dose: 78.5 mg/kg/injection, schedule: Q01DX Z (ip), vehicle: carboxymethylcellulose (CMC) 92 % of control | [4] 102 % of control | dose: 157.0 mg/kg/injection, schedule: Q01DX Z (ip), vehicle: carboxymethylcellulose (CMC) 91 % of control | [5] 98 % of control | [6] 98 % of control

Cc1ccc(Cl)c2ccccc12
inactive: dose: 12.5 mg/kg/injection, schedule: Q01DX009 (ip), vehicle: saline with Tween-80 106 % of control | dose: 25.0 mg/kg/injection, schedule: Q01DX009 (ip), vehicle: saline with Tween-80 104 % of control | dose: 50.0 mg/kg/injection, schedule: Q01DX009 (ip), vehicle: saline with Tween-80 106 % of control | [7] 93 % of control | [8] 90 % of control | [9] 101 % of control

CCCCCCCCCCCCCCCCCCC[As](=O)(O)CCCCCCCCCCCCCCCCCCC
inactive: dose: 50.0 mg/kg/injection, schedule: Q01DX001 (ip), vehicle: saline 97 % of control | [4] 89 % of control | [5] 95 % of control | [6] 91 % of control

Brc1sccc1-c1cccc2ccccc12
inactive: dose: 100.0 mg/kg/injection, schedule: Q04DX003 (ip), vehicle: saline with Tween-80 94 % of control | dose: 400.0 mg/kg/injection, schedule: Q04DX003 (ip), vehicle: saline with Tween-80 91 % of control

CC(=O)N(C)c1ccc(NC(=O)Nc2c(C)cccc2C)cc1
inactive: dose: 25.0 mg/kg/injection, schedule: Q04DX002 (ip), vehicle: saline 94 % of control | dose: 50.0 mg/kg/injection, schedule: Q01DX009 (ip), vehicle: Klucel (hydroxypropylcellulose) (HPC) 96 % of control | dose: 50.0 mg/kg/injection, schedule: Q04DX002 (ip), vehicle: saline 93 % of control | [10] 98 % of control | dose: 100.0 mg/kg/injection, schedule: Q04DX002 (ip), vehicle: saline 96 % of control | [11] 102 % of control | dose: 200.0 mg/kg/injection, schedule: Q04DX002 (ip), vehicle: saline 110 % of control and 112 % of control | [12] 96 % of control | dose: 400.0 mg/kg/injection, schedule: Q04DX002 (ip), vehicle: saline 94 % of control

Cc1[nH]c(=S)[nH]c(=O)c1CC(O)c1ccccc1 (stereo not given)
inactive: [1] 92 % of control | dose: 100.0 mg/kg/injection, schedule: Q04DX003 (ip), vehicle: saline 92 % of control | dose: 200.0 mg/kg/injection, schedule: Q04DX003 (ip), vehicle: saline 94 % of control | [3] 87 % of control | dose: 400.0 mg/kg/injection, schedule: Q04DX003 (ip), vehicle: saline 89 % of control

CCCCCCCC/C=C\CCCCCCCC(=O)OCC1CCCO1 (stereo not given)
inactive: [7] 95 % of control | [8] 90 % of control | [9] 92 % of control

O=C(Nc1c(Br)cc2c(c1Br)Cc1cc(Br)ccc1-2)C(F)(F)F
inactive: [4] 94 % of control | [5] 101 % of control | [6] 106 % of control

COc1cc(C)ccc1C1=CCCC1
inactive: dose: 37.5 mg/kg/injection, schedule: Q01DX009 (ip), vehicle: saline 116 % of control | dose: 75.0 mg/kg/injection, schedule: Q01DX001 (ip), vehicle: acetone 102 % of control | dose: 75.0 mg/kg/injection, schedule: Q01DX009 (ip), vehicle: saline 111 % of control | dose: 150.0 mg/kg/injection, schedule: Q01DX001 (ip), vehicle: acetone 91 % of control | dose: 150.0 mg/kg/injection, schedule: Q01DX009 (ip), vehicle: saline 106 % of control | dose: 225.0 mg/kg/injection, schedule: Q01DX009 (ip), vehicle: acetone 86 % of control | dose: 300.0 mg/kg/injection, schedule: Q01DX001 (ip), vehicle: acetone 89 % of control

Cc1cc(C)c(S(=O)(=O)c2c(C)cc(C)c([N+](=O)[O-])c2C)c(C)c1[N+](=O)[O-]
inactive: [10] 98 % of control | [1] 92 % of control | [11] 88 % of control | [2] 93 % of control | [12] 88 % of control | [3] 90 % of control

CNC(=O)CCC(NS(=O)(=O)c1ccc(C)cc1)C(=O)OC (stereo not given)
inactive: dose: 100.0 mg/kg/injection, schedule: Q01DX001 (ip), vehicle: saline with Tween-80 100 % of control | dose: 200.0 mg/kg/injection, schedule: Q01DX001 (ip), vehicle: saline with Tween-80 94 % of control | dose: 400.0 mg/kg/injection, schedule: Q01DX001 (ip), vehicle: saline with Tween-80 97 % of control

COC(=O)C1OC(n2cnc3c(N)ncnc32)C(O)C1O (stereo not given)
inactive: dose: 100.0 mg/kg/injection, schedule: Q01DX005 (ip), vehicle: saline 101 % of control | dose: 200.0 mg/kg/injection, schedule: Q01DX005 (ip), vehicle: saline 101 % of control

CC1(c2ccc(C(O)c3ccccc3)s2)OCCO1 (stereo not given)
inactive: dose: 33.0 mg/kg/injection, schedule: Q01DX009 (ip), vehicle: carboxymethylcellulose (CMC) 103 % of control | dose: 37.5 mg/kg/injection, schedule: Q04DX003 (ip), vehicle: Klucel (hydroxypropylcellulose) (HPC) 109 % of control | dose: 50.0 mg/kg/injection, schedule: Q01DX009 (ip), vehicle: carboxymethylcellulose (CMC) 98 % of control | dose: 75.0 mg/kg/injection, schedule: Q01DX001 (ip), vehicle: carboxymethylcellulose (CMC) 109 % of control | dose: 75.0 mg/kg/injection, schedule: Q01DX009 (ip), vehicle: carboxymethylcellulose (CMC) 103 % of control | dose: 75.0 mg/kg/injection, schedule: Q04DX003 (ip), vehicle: Klucel (hydroxypropylcellulose) (HPC) 109 % of control | dose: 100.0 mg/kg/injection, schedule: Q01DX001 (ip), vehicle: Klucel (hydroxypropylcellulose) (HPC) 103 % of control | dose: 150.0 mg/kg/injection, schedule: Q01DX001 (ip), vehicle: Klucel (hydroxypropylcellulose) (HPC) 97 % of control | dose: 150.0 mg/kg/injection, schedule: Q01DX009 (ip), vehicle: carboxymethylcellulose (CMC) 113 % of control | dose: 225.0 mg/kg/injection, schedule: Q01DX001 (ip), vehicle: Klucel (hydroxypropylcellulose) (HPC) 109 % of control

CCOC(=O)C(C#N)C(C)CC (stereo not given)
inactive: [10] 102 % of control | [1] 98 % of control | [11] 98 % of control | [2] 102 % of control | [12] 94 % of control | [3] 90 % of control

O=C(Cc1cccc2ccccc12)OCCBr
inactive: dose: 222.0 mg/kg/injection, schedule: Q01DX Z (ip), vehicle: methylcellulose (MC) 100 % of control | dose: 333.0 mg/kg/injection, schedule: Q01DX Z (ip), vehicle: methylcellulose (MC) 100 % of control | dose: 500.0 mg/kg/injection, schedule: Q01DX Z (ip), vehicle: methylcellulose (MC) 96 % of control
